# From PMC8983325 (Protein & Cell, 2022)
# “And” between values parts separate entries of the source, which are not always exact repeats. Identical values can stand only once. Like-named read-outs stand apart in the source and are kept apart here.
# Tests used:
# MERS-PLpro_WT = MERS-PLpro_WT (Middle East respiratory syndrome-related coronavirus, UniProt K9N7C7); type: binding
# MERS-CoV [1] = experiment: microbe, parasite or virus in culture; type: cell-based
# MERS-PLpro = MERS-PLpro (Middle East respiratory syndrome-related coronavirus, UniProt K9N7C7); type: biochemical
# MERS-PLpro, sequence (K9N7C7 1552-1823 limits assumed): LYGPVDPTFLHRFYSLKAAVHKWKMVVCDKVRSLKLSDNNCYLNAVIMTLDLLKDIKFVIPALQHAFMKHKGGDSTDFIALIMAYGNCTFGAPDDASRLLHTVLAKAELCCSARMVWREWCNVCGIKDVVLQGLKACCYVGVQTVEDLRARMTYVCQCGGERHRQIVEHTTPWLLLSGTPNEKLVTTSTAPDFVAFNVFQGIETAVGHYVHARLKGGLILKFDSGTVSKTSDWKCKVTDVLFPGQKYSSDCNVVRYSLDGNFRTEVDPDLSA
# MERS-CoV [2] = type: cell-based
# SARS-CoV-2 [3] = type: cell-based
# SARS2-PLpro [4] = target: T1, SARS2-PLpro (Severe acute respiratory syndrome coronavirus 2, UniProt P0DTD1); type: biochemical; conditions: read-out: IC50 against SARS2-PLpro
# SARS-CoV-2 [5] = experiment: microbe, parasite or virus in culture; type: cell-based
# SARS-CoV-2 [6] = system: SARS-CoV-2; design: species or system golden Syrian hamster; conditions: hamster, in vivo
# SARS-CoV-2 [7] = type: cell-based; remark: listed apart in the source
# ISG15 and PKR expression [8] = type: cell-based
# SARS2-PLpro [9] = target: T1, SARS2-PLpro; type: binding, SARS-CoV-2
# ISG15 and PKR expression [10] = system: ISG15 and PKR expression
# hCoV-OC43 = type: cell-based
# human DUBs = type: biochemical
# [11] = system: PLpro-mediated IFN suppression (SARS2-PLpro, MERS-PLpro); type: cell-based
# [12] = system: Huh-7, VeroE6/TMPRSS2, Calu-3, Caco-2, BSC-1 cells and human embryonic lung fibroblasts (HELF)
# [13] = system: cellular proteases (serine, cysteine and acid proteases); type: biochemical
# hCoV-229E = type: cell-based
# SARS2-PLpro [14] = target: T1, SARS2-PLpro; type: biochemical
# MERS-CoV [15] = type: cell-based; remark: listed apart in the source
# [16] = Severe acute respiratory syndrome coronavirus 2, read-out: EC50 anti-SARS-CoV-2
# MERS-PLpro_WT, sequence (K9N7C7 1552-1823 limits assumed): as above
compound,measurement,setting,value
GRL0617 [reference compound],"KD, MERS-PLpro WT",MERS-PLpro_WT,no binding affinity
same,inhibition against MERS-CoV,MERS-CoV [1],no inhibition
same,effect on MERS-PLpro activity,MERS-PLpro,ineffective
same,"NP antigen immunofluorescence, MERS-CoV-infected Vero cells",MERS-CoV [2],marginal virus suppression
same,"NP antigen immunofluorescence, SARS-CoV-2-infected Vero cells",SARS-CoV-2 [3],marginal virus suppression
Cc1cccc(NC(=O)c2sc(=S)n3c2[nH]c(=O)c2cc4c(cc23)OCO4)c1 [F0393],IC50,SARS2-PLpro [4],15.8 µM
same,EC50,SARS-CoV-2 [5]; [16],15.6 µM
"N#C[C@@]1(c2ccc3c(N)ncnn23)O[C@H](CO)[C@@H](O)[C@H]1O [GS-441524, reference compound]",decrease of infectious viral PFU in lung tissues,SARS-CoV-2 [6],comparable
same,lung histology scores,SARS-CoV-2 [6],significantly reduced
same,suppression of SARS-CoV-2 genome copies (normalized by β-actin) in the lungs,SARS-CoV-2 [6],comparable degree of suppression
CCC(CC)COC(=O)[C@H](C)N[P@](=O)(OC[C@H]1O[C@@](C#N)(c2ccc3c(N)ncnn23)[C@H](O)[C@@H]1O)Oc1ccccc1 [remdesivir],"NP antigen immunofluorescence, MERS-CoV-infected Vero cells",MERS-CoV [2],significant inhibition of virus replication
same,"NP antigen immunofluorescence, SARS-CoV-2-infected Vero cells",SARS-CoV-2 [3],significant inhibition of virus replication
O=C(Nc1ccccc1Cl)c1sc(=S)n2c1[nH]c(=O)c1ccccc12 [F0213],reduction of SARS-CoV-2 viral yields,SARS-CoV-2 [7],more than 1 log10
same,"transcription levels of ISG15 and PKR, MERS-CoV-infected Huh-7 cells",ISG15 and PKR expression [8],reduced
same,IC50,SARS2-PLpro [4],7.4 µM
same,KD of F0213 to SARS2-PLpro pre-incubated with GRL0617,SARS2-PLpro [9],undetectable
same,binding affinity to SARS2-PLpro relative to GRL0617 (fold less),SARS2-PLpro [9],around 5 fold
same,Kd,"SARS2-PLpro [9]; read-out: Kd, SARS2-PLpro",40.5 µM
same,EC50,SARS-CoV-2 [5]; [16],4.55 µM
same,EC50,SARS-CoV-2 [5]; read-out: EC50 anti-SARS-CoV-2,4.55 µM and 4.5 µM
same,"expression of ISG15 and PKR, SARS-CoV-2-infected Caco-2 cells",ISG15 and PKR expression [10],significantly enhanced
same,"decrease of viral yields, hCoV-OC43",hCoV-OC43,around 1.5 log10
same,Kd,"MERS-PLpro_WT; read-out: KD, MERS-PLpro WT",0.95 µM
same,modification of cellular DUBs by HA-Ub-VS,human DUBs,no change
same,EC50,"MERS-CoV [1]; Middle East respiratory syndrome-related coronavirus, read-out: antiviral EC50 against MERS-CoV",1.54 µM
same,"IFN-β, IRF3 and NF-κB reporter gene expression under PLpro suppression",[11],rescued the genes expression in a dose-dependent manner
same,"NP antigen immunofluorescence, MERS-CoV-infected Vero cells",MERS-CoV [2],significant inhibition of virus replication
same,cytotoxicity in the matching cell lines,[12],negligible cytotoxicity
same,cellular protease activity,[13],not affected
same,"decrease of viral yields, hCoV-229E",hCoV-229E,about 2 log10
same,decrease of infectious viral PFU in lung tissues,SARS-CoV-2 [6],1–2 log10
same,lung histology scores,SARS-CoV-2 [6],significantly reduced
same,suppression of SARS-CoV-2 genome copies (normalized by β-actin) in the lungs,SARS-CoV-2 [6],comparable degree of suppression
same,"NP antigen immunofluorescence, SARS-CoV-2-infected Vero cells",SARS-CoV-2 [3],significant inhibition of virus replication
same,modification of PLpro by HA-Ub-VS,SARS2-PLpro [14],almost completely eliminated
same,"decrease of viral yields, MERS-CoV",MERS-CoV [15],about 3 log10
